The text below walks through data of patent publication US9120749B2, “Quinoline derivatives and MELK inhibitors containing the same” (ONCOTHERAPY SCIENCE, INC., priority 2010, dated 2015).

One test concerns the target MELK (Homo sapiens, UniProt Q14680). In words: Kinase assay: MELK activity, phosphorylation of FITC-labeled histone H3 peptide measured by IMAP fluorescence polarization. The class given is biochemical. The note with it: read-out: IC50 (μM) (kinase assay). The essentials:
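Polarization of fluorescence served as the signal for MELK turnover of FITC-conjugated histone H3 peptide. Binding solution quenched each reaction, and plates stood 0.5 hour at room temperature before reading.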
(Polarisation of emitted light reports the rotation of a fluorescent probe.)

For the next test, the system named is T47D cells. In words: Cell-based assay: anti-proliferative activity, Cell Counting Kit-8, 72 hours (T47D). The note with it: Homo sapiens, T47D, 72 h. The essentials:
(§1)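 Target-specific cytotoxicity: seeded cells treated with MELK inhibitor candidates for 72 h, proliferation quantified via CCK-8, IC50 fitted.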
Background: Tetrazolium assays rely on reduction of a dye to a coloured formazan, in cell work by metabolically active cells.

Another test relates to A549 cells. In words: Cell-based assay: anti-proliferative activity, Cell Counting Kit-8, 72 hours (A549). Conditions: Homo sapiens, A549, 72 h, 72 hours. The essentials:
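A549 cells seeded in 96-well plates and exposed to candidate inhibitors for 72 hours. Growth measured with Cell Counting Kit-8; IC50 values calculated from the dose response.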

The test system of the next test is HT-1197 cells. The experiment in a line: Cell-based assay: anti-proliferative activity, Cell Counting Kit-8, 72 hours (HT-1197, negative control without MELK expression). Conditions: Homo sapiens, HT1197, 72 h, HT1197 cells (negative control), 72 hours. The essentials: as §1
A further test has as its system DU4475 cells. In words: Cell-based assay: anti-proliferative activity, Cell Counting Kit-8, 72 hours (DU4475). The note with it: Homo sapiens, DU-4475, 72 h.

Sequence of MELK (Q14680 whole entry, looked up): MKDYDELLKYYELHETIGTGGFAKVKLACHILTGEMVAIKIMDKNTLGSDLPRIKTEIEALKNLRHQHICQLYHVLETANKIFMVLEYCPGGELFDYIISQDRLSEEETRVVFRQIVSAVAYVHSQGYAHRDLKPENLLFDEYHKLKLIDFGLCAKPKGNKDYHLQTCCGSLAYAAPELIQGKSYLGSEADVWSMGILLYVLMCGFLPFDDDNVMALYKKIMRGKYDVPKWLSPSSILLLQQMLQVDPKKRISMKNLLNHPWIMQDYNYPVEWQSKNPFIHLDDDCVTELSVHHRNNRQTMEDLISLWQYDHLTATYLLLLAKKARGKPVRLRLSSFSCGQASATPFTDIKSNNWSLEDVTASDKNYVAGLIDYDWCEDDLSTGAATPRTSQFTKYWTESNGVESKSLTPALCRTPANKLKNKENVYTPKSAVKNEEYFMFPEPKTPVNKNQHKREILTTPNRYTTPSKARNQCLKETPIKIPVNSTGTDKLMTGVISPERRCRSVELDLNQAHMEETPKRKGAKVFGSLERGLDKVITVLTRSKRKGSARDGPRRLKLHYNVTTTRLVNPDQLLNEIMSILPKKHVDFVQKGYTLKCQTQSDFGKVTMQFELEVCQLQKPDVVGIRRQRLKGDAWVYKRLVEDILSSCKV

What is called IC50 is the concentration at which inhibition is half-maximal. `CN1CCN(c2c(C(=O)C3CC3)cnc3ccc(-c4cc(F)c(O)c(Cl)c4)cc23)CC1` [Example 534, (6-(3-chloro-5-fluoro-4-hydroxyphenyl)-4-(4-methylpiperazin-1-yl)quinolin-3-yl)(cyclopropyl)methanone]: the IC50 was 0.025 µM on MELK; 1.1 µM with T47D cells; 1.4 µM in the test on A549 cells; 2.8 µM with HT-1197 cells; 0.96 µM in the test on DU4475 cells.

With `CN(C)C[C@H]1CC[C@@H](Nc2c(C(=O)C3CC3)cnc3ccc(-c4cc(Cl)c(O)c(Cl)c4)cc23)CC1` [Example 526, cyclopropyl(6-(3,5-dichloro-4-hydroxyphenyl)-4-((1s,4s)-4-((dimethylamino)methyl)cyclohexylamino)quinolin-3-yl)methanone], the IC50 on MELK is 0.0021 µM; with T47D cells, 0.29 µM; in the test on A549 cells, 0.25 µM; in the test on HT-1197 cells, 1.2 µM; with DU4475 cells it was 0.15 µM.

For `COc1cc(-c2ccc3ncc(C(=O)C4CC4)c(N[C@H]4CC[C@H](CN5CCC(OC)C5)CC4)c3c2)cc(Cl)c1O` (stereo partly drawn) [Example 599], the IC50 at MELK is 0.005 µM; in the test on T47D cells, 0.51 µM; in the test with A549 cells, 0.54 µM; with HT-1197 cells it was 2.8 µM; in the test with DU4475 cells, 0.37 µM.

For the molecule `O=C(c1cnc2ccc(-c3cc(Cl)c(O)c(Cl)c3)cc2c1N[C@H]1CC[C@H](CN2CC[C@@H](F)C2)CC1)C1CC1` [Example 571, cyclopropyl(6-(3,5-dichloro-4-hydroxyphenyl)-4-((trans-4-(((R)-3-fluoropyrrolidin)methyl)cyclohexyl)amino)quinolin-3-yl)methanon], the IC50 at MELK came to 0.0043 µM; in the test on T47D cells it was 0.18 µM; in the test on A549 cells it was 0.16 µM; in the test with HT-1197 cells it was 0.39 µM; with DU4475 cells it was 0.08 µM.

With `O=C(c1cnc2ccc(-c3cc(Cl)c(O)c(Cl)c3)cc2c1N[C@H]1CC[C@H](CN2CCCC2)CC1)C1CC1` [Example 584, cyclopropyl(6-(3,5-dichloro-4-hydroxyphenyl)-4-((trans-4-(pyrrolidin-1-ylmethyl)cyclohexyl)amino)quinolin-3-yl)methanone], the IC50 was 0.0016 µM on MELK; 0.13 µM in the test on T47D cells; 0.071 µM with A549 cells; 0.86 µM in the test on HT-1197 cells; 0.053 µM in the test with DU4475 cells.

As for `COc1cc(-c2ccc3ncc(C(=O)C4CC4)c(Nc4cnc(N5CCC(N)CC5)nc4)c3c2)cc(Cl)c1O` [Example 553, (4-(2-(4-aminopiperidin-1-yl)pyrimidin-5-ylamino)-6-(3-chloro-4-hydroxy-5-methoxyphenyl)quinolin-3-yl)(cyclopropyl)methanone], the IC50 is 0.0056 µM at MELK; 0.12 µM in the test with T47D cells; 0.39 µM in the test with A549 cells; 2.1 µM in the test with HT-1197 cells; 0.95 µM with DU4475 cells.

For `COc1cc(-c2ccc3ncc(C(=O)C4CC4)c(N[C@H]4CC[C@H](CN5CCCC5)CC4)c3c2)cc(Cl)c1O` [Example 586], the IC50 on MELK is 0.0028 µM; in the test with T47D cells, 0.38 µM; in the test on A549 cells, 0.2 µM; in the test on HT-1197 cells, 3 µM; with DU4475 cells, 0.19 µM.

On to `NC1CCN(c2ncc(Nc3c(C(=O)C4CC4)cnc4ccc(-c5cc(F)c(O)c(Cl)c5)cc34)cn2)C1` (stereo not drawn) [Example 572, (4-(2-(3-aminopyrrolidin-1-yl)pyrimidin-5-ylamino)-6-(3-chloro-5-fluoro-4-hydroxyphenyl)quinolin-3-yl)(cyclopropyl)methanone], for which the IC50 is 0.003 µM on MELK; 0.0076 µM in the test with T47D cells; 0.03 µM in the test with A549 cells; 0.37 µM in the test on HT-1197 cells; 0.011 µM in the test with DU4475 cells.

For `CCCC(=O)c1cnc2ccc(-c3cc(Cl)c(O)c(Cl)c3)cc2c1N[C@H]1CC[C@H](CN(C)C)CC1` [Example 605, 1-{6-(3,5-Dichloro-4-hydroxyphenyl)-4-[trans-4-((dimethylamino)methyl)cylohexylamino]quinolin-3-yl}butan-1-one], the IC50 at MELK stood at 0.002 µM; in the test with T47D cells it was 0.095 µM; with A549 cells it was 0.13 µM; in the test with HT-1197 cells, 1.1 µM; in the test with DU4475 cells, 0.051 µM.

As for `CCCC(=O)c1cnc2ccc(-c3cc(F)c(O)c(Cl)c3)cc2c1N[C@H]1CC[C@H](CN(C)C)CC1` [Example 597, 1-{6-(3-Chloro-5-fluoro-4-hydroxyphenyl)-4-[trans-4-((dimethylamino)methyl)cyclohexylamino]quinolin-3-yl}butan-1-one], the IC50 was 0.0073 µM on MELK; 0.11 µM with T47D cells; 0.16 µM with A549 cells; 1.1 µM in the test with HT-1197 cells; 0.083 µM in the test on DU4475 cells.

In the case of `CN[C@H]1CC[C@H](Nc2c(C(=O)C3CC3)cnc3ccc(-c4cnc(C#N)nc4)cc23)CC1` [Example 522], the IC50 on MELK is 0.0014 µM; in the test on T47D cells it was 0.23 µM; in the test on A549 cells, 0.95 µM; in the test with HT-1197 cells, 1.1 µM; with DU4475 cells, 0.91 µM.

On to `CN(C)C[C@H]1CC[C@@H](Nc2c(C(=O)C3CC3)cnc3ccc(-c4cc(F)c(O)c(Cl)c4)cc23)CC1` [Example 514, (6-(3-chloro-5-fluoro-4-hydroxyphenyl)-4-((1s,4s)-4-((dimethylamino)methyl)cyclohexylamino)quinolin-3-yl)(cyclopropyl)methanone], for which the IC50 stood at 0.0028 µM on MELK; 0.44 µM in the test on T47D cells; 0.26 µM with A549 cells; 0.77 µM with HT-1197 cells; 0.21 µM in the test with DU4475 cells.

Turning to `O=C(c1cnc2ccc(-c3cc(Cl)c(O)c(Cl)c3)cc2c1Nc1cnn(C2CCNCC2)c1)C1CC1` [Example 511, cyclopropyl(6-(3,5-dichloro-4-hydroxyphenyl)-4-((1-(piperidin-4-yl)-1H-pyrazol-4-yl)amino)quinolin-3-yl)methanone], the IC50 came to 0.017 µM at MELK; 0.18 µM in the test on T47D cells; 0.31 µM in the test on A549 cells; 10 µM in the test with HT-1197 cells; 0.019 µM in the test on DU4475 cells.

On to `CC(=O)c1cnc2ccc(-c3cc(Cl)c(O)c(Cl)c3)cc2c1Nc1ccc(C(N)=O)cc1` [Example 545, 4-(3-acetyl-6-(3,5-dichloro-4-hydroxyphenyl)quinolin-4-ylamino)benzamide], for which the 50% inhibitory concentration (IC50) on MELK turned out to be 0.019 µM; in the test with T47D cells, 0.62 µM; with A549 cells, 3.9 µM; in the test on HT-1197 cells it was 16 µM; with DU4475 cells, 0.56 µM.

In the case of `COc1cc(-c2ccc3ncc(C(=O)C4CC4)c(Nc4ccc(C(C)(C)N)cc4)c3c2)cc(Cl)c1O` [Example 603, (4-(4-(2-aminopropan-2-yl)phenylamino)-6-(3-chloro-4-hydroxy-5-methoxyphenyl)quinolin-3-yl)(cyclopropyl)methanone], the IC50 at MELK turned out to be 0.0036 µM; in the test on T47D cells, 0.52 µM; with A549 cells it was 0.64 µM; with HT-1197 cells, 1.7 µM; with DU4475 cells, 0.37 µM.

Turning to `CN[C@H]1CC[C@H](Nc2c(C(C)=O)cnc3ccc(-c4cc(Cl)c(O)c(Cl)c4)cc23)CC1` [Example 558], the half-inhibitory concentration (IC50) was found to be 0.0025 µM at MELK; 0.094 µM in the test on T47D cells; 0.32 µM in the test with A549 cells; 10 µM with HT-1197 cells; 0.043 µM in the test on DU4475 cells.

`COc1cc(-c2ccc3ncc(C(=O)C4CC4)c(Nc4cccc(CN(C)C)c4)c3c2)cc(Cl)c1O` [Example 622, (6-(3-chloro-4-hydroxy-5-methoxyphenyl)-4-(3-((dimethylamino)methyl)phenylamino)quinolin-3-yl)(cyclopropyl)methanone]: the IC50 at MELK was 0.0037 µM; in the test on T47D cells, 1.1 µM; in the test with A549 cells, 0.43 µM; in the test with HT-1197 cells, 5.5 µM; in the test on DU4475 cells, 0.32 µM.

For the molecule `CN(C)CCc1ccc(Nc2c(C(=O)C3CC3)cnc3ccc(-c4cc(Cl)c(O)c(Cl)c4)cc23)cc1` [Example 613, Cyclopropyl(6-(3,5-dichloro-4-hydroxyphenyl)-4-(4-(2-(dimethylamino)ethyl)phenylamino)quinolin-3-yl)methanone], the IC50 at MELK was 0.0022 µM; in the test on T47D cells, 0.13 µM; with A549 cells, 0.075 µM; in the test with HT-1197 cells, 1 µM; with DU4475 cells, 0.028 µM.

In the case of `COc1cc(-c2ccc3ncc(C(=O)C4CC4)c(Nc4ccc(C(N)=O)cc4)c3c2)cc(Cl)c1O` [Example 546, 4-(6-(3-chloro-4-hydroxy-5-methoxyphenyl)-3-(cyclopropanecarbonyl)quinolin-4-ylamino)benzamide], the IC50 on MELK was 0.04 µM; in the test on T47D cells, 1.1 µM; in the test with A549 cells, 1 µM; in the test with HT-1197 cells, 12 µM; with DU4475 cells, 1 µM.

As for `NC1CCCN(c2ncc(Nc3c(C(=O)C4CC4)cnc4ccc(-c5cc(F)c(O)c(Cl)c5)cc34)cn2)C1` (stereo not drawn) [Example 626, (4-(2-(3-aminopiperidin-1-yl)pyrimidin-5-ylamino)-6-(3-chloro-5-fluoro-4-hydroxyphenyl)quinolin-3-yl)(cyclopropyl)methanone], the IC50 stood at 0.0011 µM on MELK; 0.0051 µM in the test with T47D cells; 0.0073 µM in the test with A549 cells; 0.05 µM in the test on HT-1197 cells; 0.0048 µM with DU4475 cells.

Take `COc1cc(-c2ccc3ncc(C(C)=O)c(Nc4ccc(C(N)=O)cc4)c3c2)cc(Cl)c1O` [Example 544, 4-(3-acetyl-6-(3-chloro-4-hydroxy-5-methoxyphenyl)quinolin-4-ylamino)benzamide]: the IC50 at MELK worked out at 0.018 µM; in the test with T47D cells, 0.17 µM; in the test with A549 cells, 0.47 µM; in the test with HT-1197 cells, 2.2 µM; in the test with DU4475 cells, 0.2 µM.
